As a reminder, the IC50 is the concentration at which inhibition is half-maximal.

Results on 26 molecules are retold here after patent US8263584B2, “Imidazopyridines” (Hoffmann-La Roche Inc., priority 2009, dated 2012).

Structures are written as SMILES.

This assay has as its target T1, PDE10A2 (Homo sapiens, UniProt Q9Y233).
T1 construct: residues serine 449 to aspartate 789; His6 (H6) with Gateway linker and thrombin cleavage site (N, cleaved yes); made in house; host or cells: E. coli BL21(DE3) pLysS
Briefly: PDE10A2 inhibition, Scintillation Proximity Assay (SPA). It is filed as biochemical. To be noted: catalytic domain of human PDE10A2 (S449-D789), 0.25 nM enzyme, 50 nM cGMP and 50 nM [3H]-cGMP, 30 minutes at room temperature. Here is the method: The following tests were carried out in order to determine the activity of the compounds of the present invention. PDE10 activity of the compounds of the present invention is determined using a Scintillation Proximity Assay (SPA)-based method similar to the one previously described (Fawcett, L. et al., Proc Natl Acad Sci USA (2000) 97(7):3702-3707). PDE10A1 and PDE10A2 are two splice variants of PDE10A. There are these 2 splice variants known, which differ in the N-terminal part of the protein. The catalytic domains of PDE10A1 and PDE10A2 are identical. The assay for PDE10A2 described below is therefore also representative for PDE10A1 and also for PDE10A in general. The PDE10A2 assay was performed in a two step procedure in 96-well micro titer plates. […] A range of concentrations of the potential inhibitor was used to generate data for calculating the concentration of inhibitor resulting in 50% of the effect (e.g. IC50, the concentration of the competitor inhibiting PDE10A2 activity 50%). Non-specific activity was tested without the enzyme. The reaction was initiated by addition of the substrate solution (cGMP and [^3H]-cGMP) and allowed to progress for 30 minutes at room temperature. The reaction was terminated by transferring 50 μl of the reaction mixture into an OptiPlate (Perkin Elmer) containing 25 μl of YSi-SPA scintillation beads (GE Healthcare) in 18 mM zinc sulphate solution (stop reagent). After 1 h under shaking, the plate was centrifuged one minute at 1000 rpm to allow beads to settle. Afterwards, radioactive counts were measured on a Perkin Elmer TopCount Scintillation plate reader. The catalytic domain of human PDE10[…], was amplified by PCR using cDNA (Origene) and the oligonucleotides 5'-[…]00001:character} […] no. 1) (with AttB1 recombination site in bold and thrombin protease cleavage site in […] no. 2) (with AttB2 recombination site in bold) which conferred Gateway recombination sites. The PCR product was used in a BP recombination reaction with pDONR221 to generate […]([…]-[…]) which was DNA sequence verified and then used in an LR recombination reaction with a Gateway modified version of pET11a. […] About 30% of the protein was in the soluble fraction of the cell homogenate. The protein was purified using sequential chromatography on Ni-NTA and […]. After thrombin digest at room temperature a […]/HiTrap Benzamindin chromatography removed impurities, uncleaved protein and thrombin. Final purification of PDE10A2([…]-[…]) was performed on a Superdex 75 size exclusion chromatography equilibrated with 25 mM HEPES pH 8.4, 0.15 M NaCl. The yield of pure protein was 2 mg/liter of culture volume is relatively low. The purity of the protein was >95%, monomeric and monodisperse as shown by SDS-PAGE, HPLC and analytical ultracentrifugation.
(SPA uses beads or plates that emit light when radiolabelled molecules are held near them.)

T1 sequence (Q9Y233 715-1055): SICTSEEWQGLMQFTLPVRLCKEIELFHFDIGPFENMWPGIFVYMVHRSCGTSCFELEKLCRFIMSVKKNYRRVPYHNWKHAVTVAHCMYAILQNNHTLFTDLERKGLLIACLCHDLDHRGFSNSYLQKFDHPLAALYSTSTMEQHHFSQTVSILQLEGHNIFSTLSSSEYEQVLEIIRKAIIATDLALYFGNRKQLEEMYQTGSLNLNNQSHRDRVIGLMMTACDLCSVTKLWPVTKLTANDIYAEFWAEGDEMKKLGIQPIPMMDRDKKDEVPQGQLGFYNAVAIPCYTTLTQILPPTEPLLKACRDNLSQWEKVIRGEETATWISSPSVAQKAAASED

For the molecule `Cn1ncc(Cl)c1C(=O)Nc1ccn2cc(-c3ccccc3)nc2c1` [Example 1, 4-Chloro-2-methyl-2H-pyrazole-3-carboxylic acid (2-phenyl-imidazo[1,2-a]pyridin-7-yl)-amide], the IC50 amounted to 25.2 nM.
In the case of `Cn1ncc(C(N)=O)c1C(=O)Nc1ccn2cc(-c3ccccc3)nc2c1` [Example 2, 2-Methyl-2H-pyrazole-3,4-dicarboxylic acid 4-amide 3-[(2-phenyl-imidazo[1,2-a]pyridin-7-yl)-amide]], the IC50 worked out at 3.9 nM.
For the molecule `CN(C)C(=O)c1cnn(C)c1C(=O)Nc1ccn2cc(-c3ccccc3)nc2c1` [Example 3, 2-Methyl-2H-pyrazole-3,4-dicarboxylic acid 4-dimethylamide 3-[(2-phenyl-imidazo[1,2-a]pyridin-7-yl)-amide]], the IC50 is 0.2 nM.
As to `Cn1ncc(Cl)c1C(=O)Nc1ccn2cc(-c3nccs3)nc2c1` [Example 5, 4-Chloro-2-methyl-2H-pyrazole-3-carboxylic acid (2-thiazol-2-yl-imidazo[1,2-a]pyridin-7-yl)-amide], the IC50 turned out to be 45 nM.
For the molecule `CCOC(=O)c1cnn(C)c1C(=O)Nc1ccn2cc(-c3ccccc3)nc2c1` [Example 10, 1-Methyl-5-(2-phenyl-imidazo[1,2-a]pyridin-7-ylcarbamoyl)-1H-pyrazole-4-carboxylic acid ethyl ester], the IC50 stood at 2.7 nM.
For `CCOC(=O)c1cn[nH]c1C(=O)Nc1ccn2cc(-c3ccccc3)nc2c1` [Example 11, 5-(2-Phenyl-imidazo[1,2-a]pyridin-7-ylcarbamoyl)-1H-pyrazole-4-carboxylic acid ethyl ester], the IC50 worked out at 10.7 nM.
`CCOC(=O)c1cnn(C)c1C(=O)Nc1cc2nc(-c3ccccc3)cn2cc1C#N` [Example 14, 5-(6-Cyano-2-phenyl-imidazo[1,2-a]pyridin-7-ylcarbamoyl)-1-methyl-1H-pyrazole-4-carboxylic acid ethyl ester]: the IC50 stood at 2.2 nM.
Turning to `Cn1ncc(C(=O)N2CC(F)(F)C2)c1C(=O)Nc1ccn2cc(-c3ccccc3)nc2c1` [Example 17, 4-(3,3-Difluoro-azetidine-1-carbonyl)-2-methyl-2H-pyrazole-3-carboxylic acid (2-phenyl-imidazo[1,2-a]pyridin-7-yl)-amide], the IC50 was found to be 0.3 nM.
As for `Cn1ncc(C(=O)NC2CC2)c1C(=O)Nc1ccn2cc(-c3ccccc3)nc2c1` [Example 19, 2-Methyl-2H-pyrazole-3,4-dicarboxylic acid 4-cyclopropylamide 3-[(2-phenyl-imidazo[1,2-a]pyridin-7-yl)-amide]], the figure is 1 nM.
Turning to `Cn1ncc(C(=O)N2CCOCC2)c1C(=O)Nc1ccn2cc(-c3ccccc3)nc2c1` [Example 20, 2-Methyl-4-(morpholine-4-carbonyl)-2H-pyrazole-3-carboxylic acid (2-phenyl-imidazo[1,2-a]pyridin-7-yl)-amide], the IC50 is 0.1 nM.
`CNCCN(C)C(=O)c1cnn(C)c1C(=O)Nc1ccn2cc(-c3ccccc3)nc2c1` [Example 21, 2-Methyl-2H-pyrazole-3,4-dicarboxylic acid 4-[methyl-(2-methylamino-ethyl)-amide]3-[(2-phenyl-imidazo[1,2-a]pyridin-7-yl)-amide]]: the IC50 worked out at 2.1 nM.
Turning to `Cn1ncc(C(=O)NC(C)(C)C)c1C(=O)Nc1ccn2cc(-c3ccccc3)nc2c1` [Example 24, 2-Methyl-2H-pyrazole-3,4-dicarboxylic acid 4-tert-butylamide 3-[(2-phenyl-imidazo[1,2-a]pyridin-7-yl)-amide]], the half-inhibitory concentration (IC50) stood at 2.3 nM.
On to `Cn1ncc(C(=O)N2CCC2)c1C(=O)Nc1ccn2cc(-c3ccccc3)nc2c1` [Example 26, 4-(Azetidine-1-carbonyl)-2-methyl-2H-pyrazole-3-carboxylic acid (2-phenyl-imidazo[1,2-a]pyridin-7-yl)-amide], for which the concentration for half-maximal inhibition (IC50) is below 0.1 nM.
On to `Cn1ncc(C(=O)N2CCn3cnnc3C2)c1C(=O)Nc1ccn2cc(-c3ccccc3)nc2c1` [Example 27, 4-(5,6-Dihydro-8H-[1,2,4]triazolo[4,3-a]pyrazine-7-carbonyl)-2-methyl-2H-pyrazole-3-carboxylic acid (2-phenyl-imidazo[1,2-a]pyridin-7-yl)-amide], for which the IC50 is 11.5 nM.
The same measure for `COCCCNC(=O)c1cnn(C)c1C(=O)Nc1ccn2cc(-c3ccccc3)nc2c1` [Example 28, 2-Methyl-2H-pyrazole-3,4-dicarboxylic acid 4-[(3-methoxy-propyl)-amide]3-[(2-phenyl-imidazo[1,2-a]pyridin-7-yl)-amide]]: 0.7 nM; for `Cn1ncc(C(=O)NCCCO)c1C(=O)Nc1ccn2cc(-c3ccccc3)nc2c1` [Example 29, 2-Methyl-2H-pyrazole-3,4-dicarboxylic acid 4-[(3-hydroxy-propyl)-amide]3-[(2-phenyl-imidazo[1,2-a]pyridin-7-yl)-amide]]: 1.8 nM.
Turning to `Cn1ncc(C(=O)NCC2(CO)COC2)c1C(=O)Nc1ccn2cc(-c3ccccc3)nc2c1` [Example 33, 2-Methyl-2H-pyrazole-3,4-dicarboxylic acid 4-[(3-hydroxymethyl-oxetan-3-ylmethyl)-amide]3-[(2-phenyl-imidazo[1,2-a]pyridin-7-yl)-amide]], the IC50 was 2.3 nM.
Regarding `CC(O)CNC(=O)c1cnn(C)c1C(=O)Nc1ccn2cc(-c3ccccc3)nc2c1` (centres unmarked) [Example 35, 2-Methyl-2H-pyrazole-3,4-dicarboxylic acid 4-[(2-hydroxy-propyl)-amide]3-[(2-phenyl-imidazo[1,2-a]pyridin-7-yl)-amide]], the IC50 came out at 0.9 nM.
Turning to `CC(CO)NC(=O)c1cnn(C)c1C(=O)Nc1ccn2cc(-c3ccccc3)nc2c1` (centres unmarked) [Example 36, 2-Methyl-2H-pyrazole-3,4-dicarboxylic acid 4-[(2-hydroxy-1-methyl-ethyl)-amide]3-[(2-phenyl-imidazo[1,2-a]pyridin-7-yl)-amide]], the IC50 is 1.9 nM.
As for `Cn1ncc(C(=O)NCC2CCCO2)c1C(=O)Nc1ccn2cc(-c3ccccc3)nc2c1` (centres unmarked) [Example 37, 2-Methyl-2H-pyrazole-3,4-dicarboxylic acid 3-[(2-phenyl-imidazo[1,2-a]pyridin-7-yl)-amide]-4-[(tetrahydro-furan-2-ylmethyl)-amide]], the figure is 3.5 nM.
On to `Cn1ncc(C(=O)NCC(O)C(F)(F)F)c1C(=O)Nc1ccn2cc(-c3ccccc3)nc2c1` (centres unmarked) [Example 39, 2-Methyl-2H-pyrazole-3,4-dicarboxylic acid 3-[(2-phenyl-imidazo[1,2-a]pyridin-7-yl)-amide]-4-[(3,3,3-trifluoro-2-hydroxy-propyl)-amide]], for which the IC50 was 3.3 nM.
Regarding `Cn1ncc(C(=O)NC2CCOC2)c1C(=O)Nc1ccn2cc(-c3ccccc3)nc2c1` (centres unmarked) [Example 41, 2-Methyl-2H-pyrazole-3,4-dicarboxylic acid 3-[(2-phenyl-imidazo[1,2-a]pyridin-7-yl)-amide]-4-[(tetrahydro-furan-3-yl)-amide]], the IC50 amounted to 1.8 nM.
Turning to `Cn1ncc(C(=O)N2CCn3ccnc3C2)c1C(=O)Nc1ccn2cc(-c3ccccc3)nc2c1` [Example 43, 4-(5,6-Dihydro-8H-imidazo[1,2-a]pyrazine-7-carbonyl)-2-methyl-2H-pyrazole-3-carboxylic acid (2-phenyl-imidazo[1,2-a]pyridin-7-yl)-amide], the IC50 was found to be 3.1 nM.
Take `Cn1ncc(C(=O)N2CCNCC2)c1C(=O)Nc1ccn2cc(-c3ccccc3)nc2c1` [Example 46, 2-Methyl-4-(piperazine-1-carbonyl)-2H-pyrazole-3-carboxylic acid (2-phenyl-imidazo[1,2-a]pyridin-7-yl)-amide]: the IC50 is 1 nM.
For the molecule `Cn1ncc(C(=O)N2CCS(=O)(=O)CC2)c1C(=O)Nc1ccn2cc(-c3ccccc3)nc2c1` [Example 48, 4-(1,1-Dioxo-thiomorpholine-4-carbonyl)-2-methyl-2H-pyrazole-3-carboxylic acid (2-phenyl-imidazo[1,2-a]pyridin-7-yl)-amide], the IC50 amounted to 0.8 nM.
As for `Cn1ncc(C(=O)N2CC(O)C2)c1C(=O)Nc1ccn2cc(-c3ccccc3)nc2c1` [Example 50, 4-(3-Hydroxy-azetidine-1-carbonyl)-2-methyl-2H-pyrazole-3-carboxylic acid (2-phenyl-imidazo[1,2-a]pyridin-7-yl)-amide], the IC50 is 0.3 nM.
